# US20070116831A1, “Dental Composition with High-Potency Sweetener” (THE COCA-COLA COMPANY, priority 2005, published 2007)
# Assay: Rate of dissolution in H2O at 25° C. of rebaudioside A polymorph and amorphous forms
# Assay type: physicochemical
# Conditions: within 60 minutes
# Source text: The purification of rebaudioside A by crystallization as described above results in the formation of at least three different polymorphs: Form 1: a rebaudioside A hydrate; Form 2: an anhydrous rebaudioside A; and Form 3: a rebaudioside A solvate. In addition to the at least three polymorph forms of rebaudioside A, the purification of rebaudioside A may result in the formation of an amorphous form of rebaudioside A, Form 4. The aqueous organic solution and temperature of the purification process influence the resulting polymorph and amorphous forms in the substantially pure rebaudioside A composition. FIGS. 1-5 are exemplary powder x-ray diffraction (XRPD) scans of the polymorph and amorphous forms Form 1 (hydrate), Form 2 (anhydrate), Form 3A (methanol solvate), Form 3B (ethanol solvate), and Form 4 (amorphous), respectively.
substance,measurement,value
rebaudioside A [Form 1],Rate of dissolution in H2O at 25° C.,Very low (<0.2%/ %/60 minutes
